Assays:
QARS = target: T1, QARS (Homo sapiens, UniProt P47897); test: ATPase profile (ATP acyl phosphate probe); assay type: binding; details: SEQ ID NO: 180, ATP BS
T1 construct: to get the native cell lysate; endogenous in cells; host or cells: A375 cell lysate

PC = target: T2, PC (Homo sapiens, UniProt P11498); test: ATPase profile (ATP acyl phosphate probe); assay type: binding; details: SEQ ID NO: 152, ATP BS
T2 construct: to get the native cell lysate; endogenous in cells; host or cells: A375

[1] = Pharmacokinetics of Z36-MP5 in rats; assay type: in vivo; details: Sprague-Dawley rats; intraperitoneal 1.0 mg/kg
Method: Compound Z36-MP5 was evaluated in a pharmacokinetic study in male Sprague-Dawley (SD) rats following intraperitoneal injection of Z36-MP5 at 1.0 mg/kg as a solution in 5% DMSO, 30% PEG400, and 65% corn oil. Blood was collected at 0.25 h, 0.5 h, 1 h, 2 h, 4 h, 8 h, and 24 h following intraperitoneal injection. The blood samples were placed in wet ice, and serum was collected after centrifugation. Serum samples were frozen and stored at −80° C. The serum samples were analyzed utilizing HPLC-coupled tandem mass spectrometry (LC-MS/MS). Values are calculated from arithmetic mean plasma concentrations (n=3 rats per condition).

SLC25A24 = target: T3, SLC25A24 (Homo sapiens, UniProt Q6NUK1); test: ATPase profile (ATP acyl phosphate probe); assay type: binding; details: SLC25A24, SEQ ID NO: 192, ATP BS
T3 construct: to get the native cell lysate; endogenous in cells; host or cells: A375 cell lysate

AK4 = target: T4, AK4 (Homo sapiens, UniProt P27144); test: ATPase profile (ATP acyl phosphate probe); assay type: binding; details: AK4, SEQ ID NO: 35, ATP BS
T4 construct: to get the native cell lysate; host or cells: A375 cell lysate

[2] = tested on: panel of 233 diverse ATPases; test: ATP acyl phosphate probe assay, ATPase profile in native A375 cell lysates; assay type: binding; details: 1 μM
AARS = target: T5, AARS (Homo sapiens, UniProt P49588); test: ATPase profile (ATP acyl phosphate probe); assay type: binding; details: SEQ ID NO: 1, ATP BS
T5 construct: to get the native cell lysate; host or cells: A375 cell lysate

TOR1A = target: T6, TOR1A (Homo sapiens, UniProt O14656); test: ATPase profile (ATP acyl phosphate probe); assay type: binding; details: SEQ ID NO: 203, ATP BS
T6 construct: to get the native cell lysate; endogenous in cells; host or cells: A375 cell lysate

RAD17 = target: T7, RAD17 (Homo sapiens, UniProt O75943); test: ATPase profile (ATP acyl phosphate probe); assay type: binding; details: RAD17, SEQ ID NO: 181, ATP BS
T7 construct: to get the native cell lysate; endogenous in cells; host or cells: A375 cell lysate

DHX36 = target: T8, DHX36 (Homo sapiens, UniProt Q9H2U1); test: ATPase profile (ATP acyl phosphate probe); assay type: binding; details: DHX36, SEQ ID NO: 73, ATP BS
T8 construct: endogenous in cells; host or cells: A375 cell lysate

ATP5B = target: T9, ATP5B (Homo sapiens, UniProt P06576); test: ATPase profile (ATP acyl phosphate probe); assay type: binding; details: SEQ ID NO: 48, ATP BS
T9 construct: to get the native cell lysate; host or cells: A375 cell lysate

HDDC3 = target: T10, HDDC3 (Homo sapiens, UniProt Q8N4P3); test: ATPase profile (ATP acyl phosphate probe); assay type: binding
T10 construct: to get the native cell lysate; endogenous in cells; host or cells: A375

NVL = target: T11, NVL (Homo sapiens, UniProt O15381); test: ATPase profile (ATP acyl phosphate probe); assay type: binding
T11 construct: to get the native cell lysate; endogenous in cells; host or cells: A375

ACACA = target: T12, ACACA (Homo sapiens, UniProt Q13085); test: ATPase profile (ATP acyl phosphate probe); assay type: binding; details: SEQ ID NO: 20, ATP BS
T12 construct: to get the native cell lysate; host or cells: A375 cell lysate

T10 sequence (Q8N4P3 whole entry): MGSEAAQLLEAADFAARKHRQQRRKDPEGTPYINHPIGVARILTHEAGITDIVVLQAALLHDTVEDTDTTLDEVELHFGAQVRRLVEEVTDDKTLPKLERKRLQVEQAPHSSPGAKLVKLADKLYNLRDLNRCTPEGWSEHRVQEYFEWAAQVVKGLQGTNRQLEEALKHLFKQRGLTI
T11 sequence (O15381 whole entry): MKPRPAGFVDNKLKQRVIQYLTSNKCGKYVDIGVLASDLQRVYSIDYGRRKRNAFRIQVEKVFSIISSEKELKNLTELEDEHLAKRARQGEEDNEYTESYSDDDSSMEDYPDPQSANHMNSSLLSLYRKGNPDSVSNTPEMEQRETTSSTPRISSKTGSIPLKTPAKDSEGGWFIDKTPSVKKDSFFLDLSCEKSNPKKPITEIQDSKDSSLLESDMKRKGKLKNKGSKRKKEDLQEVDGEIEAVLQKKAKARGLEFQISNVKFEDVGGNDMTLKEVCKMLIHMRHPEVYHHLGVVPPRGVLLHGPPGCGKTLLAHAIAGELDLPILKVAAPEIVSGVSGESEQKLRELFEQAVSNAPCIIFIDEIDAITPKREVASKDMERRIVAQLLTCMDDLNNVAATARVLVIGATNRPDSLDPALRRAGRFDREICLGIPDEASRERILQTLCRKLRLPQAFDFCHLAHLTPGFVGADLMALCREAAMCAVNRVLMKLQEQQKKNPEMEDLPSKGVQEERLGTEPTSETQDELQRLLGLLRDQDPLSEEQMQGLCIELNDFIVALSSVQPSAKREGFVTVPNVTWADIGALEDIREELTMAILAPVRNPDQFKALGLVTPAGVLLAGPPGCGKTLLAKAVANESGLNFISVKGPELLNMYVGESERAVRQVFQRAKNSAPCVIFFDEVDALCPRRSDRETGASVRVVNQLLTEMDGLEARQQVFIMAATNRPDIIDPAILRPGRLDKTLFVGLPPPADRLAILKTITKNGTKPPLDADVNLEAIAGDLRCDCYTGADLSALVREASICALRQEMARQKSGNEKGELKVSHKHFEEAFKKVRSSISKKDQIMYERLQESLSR
T3 sequence (Q6NUK1 whole entry): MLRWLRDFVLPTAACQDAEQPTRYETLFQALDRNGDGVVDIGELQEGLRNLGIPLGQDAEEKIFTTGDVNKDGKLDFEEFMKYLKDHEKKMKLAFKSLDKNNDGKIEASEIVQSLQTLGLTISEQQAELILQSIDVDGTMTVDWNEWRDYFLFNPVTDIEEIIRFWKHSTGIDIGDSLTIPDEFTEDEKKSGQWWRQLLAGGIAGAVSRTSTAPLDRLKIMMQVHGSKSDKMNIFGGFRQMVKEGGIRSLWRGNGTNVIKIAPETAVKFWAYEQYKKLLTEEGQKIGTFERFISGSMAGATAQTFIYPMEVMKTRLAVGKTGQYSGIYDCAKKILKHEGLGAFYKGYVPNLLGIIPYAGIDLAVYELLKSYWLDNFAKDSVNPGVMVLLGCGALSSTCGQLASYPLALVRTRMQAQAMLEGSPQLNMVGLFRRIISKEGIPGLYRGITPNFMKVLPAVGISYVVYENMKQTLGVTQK
T7 sequence (O75943 whole entry): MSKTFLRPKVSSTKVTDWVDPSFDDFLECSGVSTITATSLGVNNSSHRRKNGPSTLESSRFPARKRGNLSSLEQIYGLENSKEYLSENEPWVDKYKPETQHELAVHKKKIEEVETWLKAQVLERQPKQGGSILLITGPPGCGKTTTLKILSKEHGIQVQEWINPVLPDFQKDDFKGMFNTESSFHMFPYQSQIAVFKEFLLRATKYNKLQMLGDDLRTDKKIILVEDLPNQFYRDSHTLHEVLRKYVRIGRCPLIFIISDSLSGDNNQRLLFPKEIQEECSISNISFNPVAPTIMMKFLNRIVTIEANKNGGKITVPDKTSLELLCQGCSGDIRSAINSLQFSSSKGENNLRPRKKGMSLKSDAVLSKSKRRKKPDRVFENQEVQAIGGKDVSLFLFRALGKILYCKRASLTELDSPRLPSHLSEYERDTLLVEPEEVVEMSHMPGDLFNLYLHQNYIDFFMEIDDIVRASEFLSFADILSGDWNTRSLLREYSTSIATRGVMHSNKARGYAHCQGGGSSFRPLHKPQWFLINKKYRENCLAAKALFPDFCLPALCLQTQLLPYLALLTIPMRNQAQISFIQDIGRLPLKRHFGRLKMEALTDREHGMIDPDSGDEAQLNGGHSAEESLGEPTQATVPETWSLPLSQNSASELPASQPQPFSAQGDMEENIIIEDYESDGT
T7 sequence (P35250 whole entry partner): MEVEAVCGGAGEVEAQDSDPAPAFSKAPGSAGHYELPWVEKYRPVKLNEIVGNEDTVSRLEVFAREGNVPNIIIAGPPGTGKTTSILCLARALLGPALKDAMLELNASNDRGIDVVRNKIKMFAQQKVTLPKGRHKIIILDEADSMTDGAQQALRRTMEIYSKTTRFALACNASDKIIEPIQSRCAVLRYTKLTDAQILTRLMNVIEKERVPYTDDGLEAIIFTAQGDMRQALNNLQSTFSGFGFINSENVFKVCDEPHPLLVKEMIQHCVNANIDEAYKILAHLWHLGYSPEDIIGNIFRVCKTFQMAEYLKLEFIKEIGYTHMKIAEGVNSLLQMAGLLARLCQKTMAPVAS
T7 sequence (P40938 whole entry partner): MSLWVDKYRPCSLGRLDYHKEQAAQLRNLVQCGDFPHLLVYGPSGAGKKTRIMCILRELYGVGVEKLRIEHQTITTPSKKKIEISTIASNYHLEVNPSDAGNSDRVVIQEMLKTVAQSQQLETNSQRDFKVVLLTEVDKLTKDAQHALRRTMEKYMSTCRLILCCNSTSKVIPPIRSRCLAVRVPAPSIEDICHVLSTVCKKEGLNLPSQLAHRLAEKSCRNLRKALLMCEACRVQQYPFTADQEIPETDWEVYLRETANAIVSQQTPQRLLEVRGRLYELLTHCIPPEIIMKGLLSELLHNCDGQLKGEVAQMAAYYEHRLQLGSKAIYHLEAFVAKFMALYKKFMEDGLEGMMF
T7 sequence (P35249 whole entry partner): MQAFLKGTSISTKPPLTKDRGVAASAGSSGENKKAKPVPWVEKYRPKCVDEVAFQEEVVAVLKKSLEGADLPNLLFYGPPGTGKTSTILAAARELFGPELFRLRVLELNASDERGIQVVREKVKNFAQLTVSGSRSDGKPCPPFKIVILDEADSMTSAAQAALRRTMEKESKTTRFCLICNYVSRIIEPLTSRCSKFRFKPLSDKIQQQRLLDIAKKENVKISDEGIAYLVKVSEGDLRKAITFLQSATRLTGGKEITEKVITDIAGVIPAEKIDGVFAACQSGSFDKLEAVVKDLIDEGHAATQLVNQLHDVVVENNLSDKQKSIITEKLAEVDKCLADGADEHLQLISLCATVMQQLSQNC
T7 sequence (P40937 whole entry partner): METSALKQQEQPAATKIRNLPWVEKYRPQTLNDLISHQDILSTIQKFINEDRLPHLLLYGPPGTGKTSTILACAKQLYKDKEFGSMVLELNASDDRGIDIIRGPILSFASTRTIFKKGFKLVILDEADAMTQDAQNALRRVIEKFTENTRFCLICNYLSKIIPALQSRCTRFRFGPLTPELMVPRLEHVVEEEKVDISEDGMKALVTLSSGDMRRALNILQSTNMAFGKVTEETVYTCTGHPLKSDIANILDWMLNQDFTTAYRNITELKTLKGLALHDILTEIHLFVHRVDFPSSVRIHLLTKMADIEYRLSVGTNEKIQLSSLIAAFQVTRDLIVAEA
T1 sequence (P47897 whole entry): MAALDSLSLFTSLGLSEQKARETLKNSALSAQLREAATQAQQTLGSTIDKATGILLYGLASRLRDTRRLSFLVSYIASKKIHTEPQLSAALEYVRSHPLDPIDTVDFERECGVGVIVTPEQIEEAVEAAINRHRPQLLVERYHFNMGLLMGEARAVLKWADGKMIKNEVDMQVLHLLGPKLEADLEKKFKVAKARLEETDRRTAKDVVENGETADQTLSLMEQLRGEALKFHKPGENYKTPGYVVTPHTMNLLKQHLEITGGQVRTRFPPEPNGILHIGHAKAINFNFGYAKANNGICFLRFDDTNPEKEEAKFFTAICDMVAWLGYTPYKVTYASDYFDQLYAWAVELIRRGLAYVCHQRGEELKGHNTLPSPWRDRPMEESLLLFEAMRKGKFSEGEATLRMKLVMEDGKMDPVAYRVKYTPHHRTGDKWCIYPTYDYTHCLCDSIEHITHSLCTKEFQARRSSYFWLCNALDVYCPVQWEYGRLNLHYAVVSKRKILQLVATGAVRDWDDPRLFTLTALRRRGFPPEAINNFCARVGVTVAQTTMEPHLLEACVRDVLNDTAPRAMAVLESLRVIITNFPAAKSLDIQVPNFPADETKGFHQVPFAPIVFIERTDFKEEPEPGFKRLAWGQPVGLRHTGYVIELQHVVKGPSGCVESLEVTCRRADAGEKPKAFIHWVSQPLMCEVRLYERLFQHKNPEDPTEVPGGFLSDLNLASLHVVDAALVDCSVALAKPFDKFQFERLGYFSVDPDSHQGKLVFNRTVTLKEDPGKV
T4 sequence (P27144 whole entry): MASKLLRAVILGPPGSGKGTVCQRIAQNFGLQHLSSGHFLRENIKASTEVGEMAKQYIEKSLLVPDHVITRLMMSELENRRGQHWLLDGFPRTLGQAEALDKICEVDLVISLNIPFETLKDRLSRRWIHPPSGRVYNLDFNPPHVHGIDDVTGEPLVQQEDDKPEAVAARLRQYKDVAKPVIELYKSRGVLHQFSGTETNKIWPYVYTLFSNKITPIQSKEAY
T6 sequence (O14656 21-332): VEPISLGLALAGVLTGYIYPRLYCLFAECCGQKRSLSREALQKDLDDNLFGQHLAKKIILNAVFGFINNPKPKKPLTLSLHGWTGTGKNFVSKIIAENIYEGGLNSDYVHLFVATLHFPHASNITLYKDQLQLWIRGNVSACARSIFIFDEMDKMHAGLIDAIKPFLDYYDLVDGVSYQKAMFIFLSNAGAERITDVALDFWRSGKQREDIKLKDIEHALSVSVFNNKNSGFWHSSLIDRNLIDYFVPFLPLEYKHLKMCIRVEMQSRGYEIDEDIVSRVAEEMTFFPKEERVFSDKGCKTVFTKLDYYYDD

## Cn1c(=O)[nH]c2ccc(-c3cccc(C(=O)NC4CCn5ccnc5C4)c3)cc21 (stereo not shown) [Z36-MP5, 3-(3-methyl-2-oxo-2,3-dihydro-1H-benzo[d]imidazol-5-yl)-N-(5,6,7,8-tetrahydroimidazo[1,2-a]pyridin-7-yl)benzamide]
QARS
  Inhibition (%) by 1 μM Z36-MP5: −7.77%
PC
  Inhibition (%) by 1 μM Z36-MP5: −15.19%
[1]
  half-life T1/2: 27 min
SLC25A24
  Inhibition (%) by 1 μM Z36-MP5: 11.88%
AK4
  Inhibition (%) by 1 μM Z36-MP5: −9.19%
[2]
  inhibition against a panel of 233 diverse ATPases: less than 35%
AARS
  Inhibition (%) by 1 μM Z36-MP5: −29.97%
TOR1A
  Inhibition (%) by 1 μM Z36-MP5: 4.27%
RAD17
  Inhibition (%) by 1 μM Z36-MP5: 15.62%
DHX36
  Inhibition (%) by 1 μM Z36-MP5: −20.12%
ATP5B
  Inhibition (%) by 1 μM Z36-MP5: −14.96%
HDDC3; HDDC3, SEQ ID NO: 90, ATP BS
  Inhibition (%) by 1 μM Z36-MP5: 1.23%
HDDC3; HDDC3, SEQ ID NO: 91, ATP BS
  Inhibition (%) by 1 μM Z36-MP5: 17.25%
NVL; SEQ ID NO: 148, ATP BS
  Inhibition (%) by 1 μM Z36-MP5: −1.13%
NVL; SEQ ID NO: 149, ATP BS
  Inhibition (%) by 1 μM Z36-MP5: −8.26%
ACACA
  Inhibition (%) by 1 μM Z36-MP5: 6.21%

— US12268674B2, “Mi-2β inhibitor as an immunotherapy agent” (BioVentures, LLC, priority 2021, dated 2025)
